Where two headings read alike, the source gives them in different places.
What was measured:
[1] = test system: acetic acid-induced stretching symptom of mouse; test: Analgesic activity, acetic acid-induced stretching method; assay type: in vivo, mice (ddy strain, male); conditions: for inhibition in vivo at 100 mg/kg / inhibition in vivo at 200 mg/kg: read-out: Analgesic activity, acetic acid-induced stretching method, inhibitory ratio
Protocol: (§1) Next, several tests for determining the pharmacological properties, in that acute toxicity, anti-pyretic activity, analgesic activity and anti-inflammatory activity of the present 1,3,5-substituted biuret compounds of the formula (1) were conducted and the test results are shown in Table (2). In the tests, each compounds to be tested was used as a suspension in 0.25% carboxymethylcellulose solution. Methods for testing are explained as follows:
(1) Acetic acid-induced stretching method
According to the method reported by Koster et.al., [Fed. Proc., Vol. 18, pp. 412 (1959)], the ddy strain of male mice (body weight, 20-25 g) were used as test animals. The mice were fasted overnight, 100 mg/kg body weight of the test compound was administered orally, then 1 hour after the administration, 0.2 ml of 0.7% acetic acid solution was injected intraperitoneally. The acetic acid-induced stretching symptom of mouse was observed. Analgesic activity of the test compound was calculated as the inhibitory ratio (%). In Table 2, the values in parentheses show the data obtained from the test by using the dosage other than 100 mg/kg body weight. Further, the values indicated with Δ marks show 50% effective dose, ED50 (mg/kg body weight).

[2] = test system: ddy strain of male mice; test: Acute toxicity (oral, general symptom and death observed for 7 days); assay type: in vivo; conditions: 7 days
Protocol: as §1
The ddy strain of male mice (body weight, 20-25 g) were used as test animals. The mice were fasted overnight and the compound to be tested was administered orally. […] The lethal dose (mg/kg, body weight) of the test compound was determined in connection with the death number of mice/the number of mice tested. In Table 2, the values indicated with Δ marks are 50% lethal dose, LD50 (mg/kg, body weight).

[3] = test system: pain reaction of the mouse caused by a clamp; test: Analgesic activity, Haffner method; assay type: in vivo, mice (ddy strain, male); conditions: for Analgesic activity, Haffner method, inhibitory ratio: mice
Protocol: as §1
According to the modified method reported by Fujimura et al., [Bulletin of the Institute for Chemical Research, Kyoto University, No. 25, pp. 36 (1951)], the ddy strain of male mice (body weight, 20-25 g) were used as test animals. The mice were fasted overnight, 100 mg/kg body weight of the test compound was administered orally, then 45 minutes after the administration, the threshhold amount (1.5-2.5 mg/kg body weight) of morphine hydrochloride was injected subcutaneously. Then 1-hour pain reaction of the mouse caused by a clamp was observed. Analgesic activity of the test compound was calculated as the inhibitory ratio (%). In Table 2, the values in parentheses show the data obtained from the test by using the dosage other than 100 mg/kg body weight. Further, the values indicated with Δ marks show 50% effective dose, ED50 (mg/kg body weight).

[4] = test system: carrageenin-induced inflammation of the hindpaw of the rat; test: Anti-inflammatory activity, acute carrageenin-induced inflammatory test; assay type: in vivo, rats (Wistar strain, male); conditions: Rattus norvegicus, read-out: Anti-inflammatory activity, inflammation inhibitory ratio
Protocol: as §1
4. Anti-inflammatory Activity
According to the method of acute carrageenin-induced inflammatory test [Folia Pharmacologia Japonica, Vol. 56, pp. 575 (1960)], the Wistar strain of male rats (body weight, 150-180 g) were used as test animals. The rats were fasted overnight, 100 mg/kg body weight of the test compound was administered orally, then 1 hour after the administration, 0.1 ml of 1% carrageenin solution, as the inflammation inducing agent, was injected subcutaneously to the hindpaw of the rat and the volume of the hindpaw was measured at time sequences. Anti-inflammatory activity of the test compound was calculated as inflammation inhibitory ratio (%) at 3 hours after the injection of inflammation inducing agent.

[5] = 100 mg/kg oral, rats, 3 hours after carrageenin
[6] = 200 mg/kg oral, rats, 3 hours after carrageenin

Structure (SMILES)	inhibition in vivo at 100 mg/kg ([1]; po) [%]	Acute toxicity, death number of mice/number of mice tested ([2]; 2000 mg/kg oral)	Acute toxicity, death number of mice/number of mice tested ([2]; 1000 mg/kg oral)	Analgesic activity, Haffner method, inhibitory ratio ([3]; 100 mg/kg oral) [%]	Analgesic activity, Haffner method, inhibitory ratio ([3]; 200 mg/kg oral) [%]	also measured
CN(C(N)=O)C(=O)Nc1ccccc1 [Compound No. 1]	37.5	2/4	–	–	–	–
CNC(=O)NC(=O)Nc1ccccc1 [Compound No. 2]	75	–	4/4	50	–	Acute toxicity, death number of mice/number of mice tested ([2]; 500 mg/kg oral): 0/4; inhibition in vivo at 100 mg/kg ([4]; po, 3 h): 28%
CCN(C(=O)NC)C(=O)Nc1ccccc1 [Compound No. 21, 1-Methyl-3-ethyl-5-phenylbiuret]	50	3/4	1/4	37.5	–	inhibition in vivo at 100 mg/kg [4, 5]: 56%
CNC(=O)N(C(=O)Nc1ccccc1)c1ccccc1 [Compound No. 22, 1-methyl-3,5-diphenylbiuret]	37.5	0/4	–	–	50	inhibition in vivo at 100 mg/kg [4, 5]: 35%
CCNC(=O)NC(=O)Nc1ccccc1 [Compound No. 23, 1-ethyl-5-phenylbiuret]	62.5	0/4	–	–	60	inhibition in vivo at 100 mg/kg [4, 5]: 49%
CN(C(=O)NCC(C)(C)O)C(=O)Nc1ccccc1 [Compound No. 57, 1-(2-Methyl-2-hydroxypropyl)-3-methyl-5-phenylbiuret]	–	2/4	0/4	50	–	inhibition in vivo at 100 mg/kg ([1]; 100 mg/kg oral, mice): 100%
CNC(=O)N(C)C(=O)Nc1ccccc1C(=O)O [compound 10, 1,3-Dimethyl-5-(2-carboxyphenyl)biuret]	12.5	4/4	1/4	–	–	–
CNC(=O)N(C)C(=O)NCc1ccccc1 [compound 12]	–	–	4/4	50	–	inhibition in vivo at 100 mg/kg ([1]; 100 mg/kg oral, mice): 100%; Acute toxicity, death number of mice/number of mice tested ([2]; 500 mg/kg oral): 0/4; inhibition in vivo at 100 mg/kg ([4]; po, 3 h): 47%
CNC(=O)N(C)C(=O)NCc1ccccn1 [compound 13, 1,3-Dimethyl-5-(2-pyridylmethyl)biuret]	–	2/4	0/4	37.5	–	inhibition in vivo at 100 mg/kg ([1]; 100 mg/kg oral, mice): 25%
CCNC(=O)NC(=O)Nc1ccccc1Cl [compound 24, 1-Ethyl-5-(2-chlorophenyl)biuret]	–	0/4	–	–	37.5	inhibition in vivo at 200 mg/kg ([1]; 200 mg/kg oral, mice): 25%; inhibition in vivo at 200 mg/kg [4, 6]: 77%
CCNC(=O)NC(=O)Nc1cccc(Cl)c1 [compound 25, 1-Ethyl-5-(3-chlorophenyl)biuret]	–	0/4	–	–	37.5	inhibition in vivo at 200 mg/kg ([1]; 200 mg/kg oral, mice): 25%; inhibition in vivo at 200 mg/kg [4, 6]: 86%
CCNC(=O)NC(=O)Nc1ccc(Cl)cc1 [compound 26]	–	0/4	–	–	25	inhibition in vivo at 200 mg/kg ([1]; po): 12.5%; inhibition in vivo at 200 mg/kg [4, 6]: 76%
CCNC(=O)NC(=O)Nc1ccc(Cl)c(Cl)c1 [compound 27, 1-Ethyl-5-(3,4-dichlorophenyl)biuret]	–	1/4	0/4	–	12.5	inhibition in vivo at 200 mg/kg ([1]; po): 12.5%; inhibition in vivo at 200 mg/kg ([4]; po, 3 h): 44%
CCNC(=O)NC(=O)NCc1ccccc1 [compound 29, 1-Ethyl-5-benzylbiuret]	12.5	1/4	0/4	25	–	inhibition in vivo at 100 mg/kg [4, 5]: 31%
CCNC(=O)NC(=O)Nc1ccccn1 [compound 30, 1-Ethyl-5-(2-pyridyl)biuret]	–	3/4	0/4	37.5	–	inhibition in vivo at 100 mg/kg ([4]; po, 3 h): 30%
CCNC(=O)N(C)C(=O)Nc1ccc(O)cc1 [compound 34, 1-Ethyl-3-methyl-5-(4-hydroxyphenyl)biuret]	–	0/4	–	12.5	–	inhibition in vivo at 100 mg/kg ([1]; 100 mg/kg oral, mice): 25%; inhibition in vivo at 100 mg/kg [4, 5]: 19%
CCCNC(=O)NC(=O)NCc1ccccc1 [compound 42]	–	0/4	–	–	50	inhibition in vivo at 200 mg/kg ([1]; 200 mg/kg oral, mice): 82.5%; inhibition in vivo at 200 mg/kg [4, 6]: 31%
CCCCNC(=O)NC(=O)Nc1ccccc1 [compound 46]	–	0/4	–	–	25	inhibition in vivo at 200 mg/kg [4, 6]: 84%
CCCCNC(=O)NC(=O)NCc1ccccc1 [compound 48]	–	0/4	–	–	–	ED50 ([1]; oral, mice (Δ values; range in parentheses), read-out: Analgesic activity, acetic acid-induced stretching method, 50% effective dose ED50): 111 mg/kg; ED50 ([3]; Mus musculus, oral, mice (Δ values; range in parentheses), read-out: Analgesic activity, Haffner method, 50% effective dose ED50): 110 mg/kg; inhibition in vivo at 200 mg/kg [4, 6]: 46%
CN(C(=O)NCCCl)C(=O)Nc1ccccc1 [compound 53, 1-(2-Chloroethyl)-3-methyl-5-phenylbiuret]	12.5	0/4	–	25	–	inhibition in vivo at 100 mg/kg ([4]; po, 3 h): 40%
CN(C(=O)NCCC#N)C(=O)Nc1ccccc1 [compound 54, 1-(2-Cyanoethyl)-3-methyl-5-phenylbiuret]	50	3/4	0/4	12.5	–	inhibition in vivo at 100 mg/kg [4, 5]: 39%
CN(C(=O)NCC(O)CO)C(=O)Nc1ccccc1 (stereo not drawn) [compound 58, 1-(2,3-Dihydroxypropyl)-3-methyl-5-phenylbiuret]	37.5	0/4	–	37.5	–	–
COCCNC(=O)N(C)C(=O)Nc1ccccc1 [compound 59, 1-(2-Methoxyethyl)-3-methyl-5-phenylbiuret]	–	4/4	1/4	25	–	inhibition in vivo at 100 mg/kg ([1]; 100 mg/kg oral, mice): 25%
CN(C(=O)NCC(=O)O)C(=O)Nc1ccccc1 [compound 60, 1-Carboxymethyl-3-methyl-5-phenylbiuret]	–	0/4	–	25	–	inhibition in vivo at 100 mg/kg ([1]; 100 mg/kg oral, mice): 25%
CC(=O)NC(=O)N(C)C(=O)Nc1ccccc1 [compound 61, 1-Acetyl-3-methyl-5-phenylbiuret]	50	0/4	–	12.5	–	–
CN(C(=O)NO)C(=O)Nc1ccccc1 [compound 62, 1-Hydroxy-3-methyl-5-phenylbiuret]	–	1/4	0/4	25	–	–
CN(C(=O)Nc1ccccc1)C(=O)Nc1ccccc1 [compound 64]	37.5	0/4	–	–	12.5	–
